Key:
cells = assay: Trypan blue dye exclusion (cell viability and toxicity); assay type: cell-based; settings: 1, 10, 50, 100 μM, 48 to 66 hours
Method: The trypan blue dye exclusion is commonly used for measuring cell viability and toxicity. 48-66 hours after treatment of ABAD compounds, the trypan blue exclusion experiments were performed. In brief, cells plated in 96-well plates were washed with the balanced salt solution (Hanks-Balanced Salts/HBSS) once, then replaced with HBSS including trypan blue solution to the final concentration of 0.2% (Sigma-Aldrich, St. Louis, Mo.), and mixed thoroughly. After standing at room temperature for 5 minutes, the cells were washed with HESS again and then maintained in the well with HBSS. Both the stained and unstained cells in each well were counted under a microscope (Nikon E400). The calculated percentage of unstained cells represented the percentage of viable cells. Cell viability (%)=total viable cells (unstained)/total cells (stained and unstained)×100.
The effect of ABAD inhibitors on cell viability and toxicity was assessed using MTT reduction assay and trypan blue exclusion, which are widely used to assess cell survival and toxicity and to screen for drugs toxicity. Cells were treated with a range of concentrations of ABAD compound (4 and 8) at 1, 10, 50, 100 μM for 48 to 66 hours.

[1] = Pharmacokinetic study and BBB penetration, LC-MS/MS of plasma and brain; assay type: in vivo, C57BL6 mice; settings: mice, intravenous 10 mg/kg
Method: Using the validated LCMS/MS method, blood and brain levels of 4, 8, and 15 were measured in male and female C57BL6 mice (8-10 week-old, weighing approximately 25-30 grams). The mice were housed in a room with controlled temperature (23±3° C.) and moisture level (55±15% relative humidity) and exposed to a controlled 12 hour light/12 hour dark cycle. They were allowed to access to food and water ad libitum. Mice were fasted for 6 hours with free access to water prior to the pharmacokinetic study. To determine the time course of compounds 4, 8, and 15 action in the brain, the plasma pharmacokinetics and BBB penetration capability of the inhibitors were investigated. In these experiments, compounds 4, 8, and 15 were administered to mice by intravenous injection at a dosage of 10 mg/kg. Blood and brain samples were collected from mouse at each time point (2, 5, 10, 30, 60, 120, 240, 360, 720, 1440, and 2880 minutes), a total of 11 time points. For plasma measurements, blood (approximately 500-800 μl) was collected via cardiac-puncture into tubes containing sodium heparin anti-coagulant. Plasma was separated via centrifugation (4° C., 3500 rpm, 10 minutes) and stored in −80° C. freezer. For qualitative confirmations of these compounds in CSF, samples were collected at 2 time points (240 and 1440 min) from five animals at each time point. At the time of measurement, frozen plasma samples were thawed at room temperature and vortexed thoroughly. The following quantities were estimated using non-compartmental calculations performed with WINNONLIN 5.2 (Pharsight, Sunnyvale, Calif.): the area under the plasma concentration-time curve during the period of observation (AUC0-τ); the area under the plasma concentration-time curve from zero to infinity (AUC0-∞); the maximum plasma concentration (Cmax); the time to reach Cmax (Tmax); and the half-life (t1/2).
The LC-MS/MS method described above was used for the determination of 4, 8 and 15 in plasma, brain, and CSF for pharmacokinetic study. Based on the initial concentration data, the pharmacokinetic parameters including the area under the plasma concentration-time curve during the period of observation (AUC0-t), the area under the plasma concentration-time curve from zero to infinity (AUC0-∞) the maximum plasma concentration (Cmax) the time to reach Cmax (Tmax) and the half-life (t1/2) are shown in Table 8.

SK-N-SH cells = assay: ATP levels in Aβ-treated cells; assay type: cell-based; settings: for ATP levels: 5 μM Aβ1-42 plus 1 μM inhibitor; for ATP levels, inhibitor alone: inhibitor without Aβ
Method: Forty-eight hour later, ATP levels (μmol mg^−1 protein) were measured in cell lysates.
To determine the effect of ABAD inhibitors on Aβ-induced impairment in energy metabolism, ATP levels were measured. […] ATP levels were measured in the cell lysates. […] Therefore, ABAD inhibitors can block mitochondrial dysfunction mediated by Aβ.

ABAD = assay type: biochemical
Method: Before the assay, all the assay components except SAAC were pre-incubated for 5 minutes, and the reaction started with the addition of SAAC into the reaction mix. The reaction was carried out for a total 6 minutes at room temperature under steady-state conditions, and the decrease of NADH absorbance at 340 nm was determined every 10 seconds. Kinetic data were analyzed by PRISM (Scitech, San Diego, Calif.) to determine IC50 values and Ki. One unit of enzyme activity was defined as that which converted 1.0 μmol of substrate to product per minute.

Row | SMILES | percentage of trypan blue-positive cells (cells) | t1/2 ([1]; Brain) | t1/2 ([1]; Plasma) | ATP levels (SK-N-SH cells) | ATP levels, inhibitor alone (SK-N-SH cells) | inhibitory effect on SAAC reduction by ABAD (ABAD)
1 | COc1ccc2nc(N[C@@H](c3ccc(O)cc3)P(=O)(OC)OC)sc2c1 (racemic) [Compound 8, Dimethyl ((4-hydroxyphenyl)((6-methoxybenzo[d]thiazol-2-yl)amino)methyl)phosphonate] | did not exhibit decreased MTT reduction, increased percentage of trypan blue-positive cells | 8.3 h | 5.5 h | rescued ATP levels | comparable to cells treated with vehicle alone | –
2 | COC(=O)c1cc([C@H](Nc2nc3ccc(OC)cc3s2)P(=O)(OC)OC)ccc1O [Compound 4, Methyl 5-((dimethoxyphosphoryl)((6-methoxybenzo[d]thiazol-2-yl)amino)methyl)-2-hydroxybenzoate] | did not exhibit decreased MTT reduction, increased percentage of trypan blue-positive cells | 17.1 h | 6.2 h | rescued ATP levels | comparable to cells treated with vehicle alone | modest inhibitory effect
